We go through 10 molecules from US5500444A, “Cardioprotective tocopherol analogs” (Hoechst Marion Roussel, Inc., priority 1994, dated 1996).

A short description of series [1]: superoxide radicals generated by xanthine oxidase/xanthine, detected by reduction of nitro blue tetrazolium. As to conditions: for superoxide radicals scavenged: at 200 μM; for IC50: read-out: IC50 (superoxide radical scavenging). It is filed as biochemical. Here is the method:
In another evaluation, superoxide radicals were generated by 4 mU of xanthine oxidase in the presence of 0.1 mM xanthine and detected by reduction of 40 μM nitro blue tetrazolium to the diformazan dye in a spectrophotometric assay as described by C. Beauchamp and I. Fridovich, (1971) Analyt. Biochem. 44, 276-287. 30 U of superoxide dismutase inhibited this reduction by 90% which, therefore, was due to superoxide radicals. […] Trolox is a commercial antioxidant and is a known potent superoxide radical scavenger. For comparison, D,L-penicillamine and N-2-mercaptopropionyl glycine at 200 μM scavenged only 14% of the superoxide radicals. Neither of the scavengers inhibited xanthine oxidase, when tested at 200 μM.

Series [2] in a line: autoxidation of 1-epinephrine (superoxide radical reduction, Misra and Fridovich). It is filed as biochemical. The note with it: 1-epinephrine 1×10^-4 M, EDTA 1×10^-4 M, 30° C.; read-out: 50% inhibition of the autoxidation rate (ID50). As for the experimental part:
2-(3,4-dihydro-6-hydroxy-2,5,7,8-tetramethyl-2H-1-benzopyran-2-yl)ethyl-N,N,N-trimethylammonium bromide, described in Example 1, was evaluated for its ability to reduce superoxide radicals in an assay described by H. P. Misra and J. Fridovich, 1972, J. Biol. Chem. 247, 3170-5. In this assay, the rate of autoxidation of 1-epinephrine (1×10^-4 M) in the presence of EDTA (1×10^-4 M) at 30° C. is followed spectrophotometrically following the increase of absorbance at 480 mn.
Misra and Fridovich report that bovine superoxide dismutase gave 50% inhibition at 46mg per ml.

Series [3] is described as follows: oral absorption and excretion. The series is classed as in vivo.
In series [4] the test system is β2 -receptors. As to conditions: infarcted reperfused heart, rats; Lukovic et al., 1992; cited from earlier work.
Series [5] concerns human α1 Pi. Nature of the series: Protection of α1 Pi from leukocyte-mediated inactivation (residual elastase inhibitory capacity). The series is classed as cell-based. The note with it: for Relative PC50: concentration to protect 50% of elastase inhibitory capacity of α1 Pi, mean ± S.D. (n = 3) for Compound A; for inactivation of α1 Pi: zymosan-stimulated human leukocytes. An excerpt: Stimulated human leukocytes release radicals and other oxygen metabolites, which, during inflammation, act as microbicidal agents. At the same time, they release proteolytic enzymes, such as elastase, which are also microbicidal but potentially threaten the connective tissue of the host. An endogenous α1 -proteinase inhibitor (α1 Pi) normally protects the host tissue from proteolytic digestion. α1 Pi is, however, inactivated by the leukocyte-derived oxidants. The inactivation of α1 Pi is antagonized by the disclosed radical scavengers 2-(3,4-dihydro-6-hydroxy-2,5,7,8-tetramethyl-2H-1-benzopyran-2-yl)-N,N,N-trimethylethanammonium, 4-methylbenzylsulfonate (Compound A) and 3,4-dihydro-2-(2-dimethylaminoethyl)-2,5,7,8-tetramethyl-2H-1-benzopyran-6-ol (Compound B). The concentration needed to protect 50% of the elastase inhibitory capacity of α1 Pi (PC50) depends on the amount of stimulated leukocytes present.
The procedure described by Skosey and Chow was followed (see Skosey, J. L. and Chow, D. C. (1985) In Handbook of Methods for Oxygen Radical Research (Greenwald, R. A., ed.) pp. 413-416, CRC Press, Boca Raton). In short, human α1 Pi was incubated with zymosan-stimulated human peripheral-blood leukocytes in the absence or presence of the scavengers. The amount of α1 Pi protected from oxidative inactivation was determined by its residual elastase inhibitory capacity.

The test system of series [6] is rats subjected to myocardial ischemia and reperfusion. The note with it: Lukovic et al., 1992; cited from earlier work.
Series [7] concerns ligation-induced infarcted and reperfused rats. In words: Cardioprotective effects in ligation-induced infarcted and reperfused rats. The note with it: treated group, 10 mg/kg/h i.v., individual rats No. 1-10. The series is classed as in vivo. As for the experimental part:
2-(3,4-Dihydro-2,5,7,8-tetramethyl-6-methylcarbonyloxy-2H-1-benzopyran-2-yl)ethyl-N,N,N-trimethylammonium bromide was evaluated in ligation-induced infarcted and reperfused rats as follows. One of two groups of rats was infused intravenously with a solution of test compound in saline at a rate of 2.3 ml/h (10 mg/kg/h). The control group was infused with saline at the same rate. After 10 min of drug infusion, coronary arteries were ligated surgically for 60 min, ligation was loosened to allow reperfusion for 30 min. The ligation was retied and a dye (Evans Blue) was injected. The animals were sacrificed and the heart ventricles were removed and weighed. The unstained tissue was dissected and weighed; this represents the "area at risk", i.e. the area that was deprived of blood supply by ligation. To determine the infarcted area, the tissue was incubated with 2,3,5-triphenyltetrazolium chloride. Infarcted tissue became light colored and could be dissected and weighed. Thus, for each rat that survived the ligation a measurement of "area at risk" and of "infarcted area" was obtained and the ratio was calculated as given in Tables II and III.

A short description of series [8]: Affinity for cardiac tissue (radioactivity in heart and blood after intravenous 14C-labelled compound). It is filed as in vivo, rats. The note with it: rat, 0.91 mg base/kg i.v. As for the experimental part:
Following the procedure described in Example 9, but using ^14 C-methyl p-toluenesulfonate in place of "cold material", ^14 C-labelled 2-(3,4-dihydro-2,5,7,8-tetramethyl-6-methylcarbonyloxy-2H-1-benzopyranan-2-yl)ethyl-N,N,N-tri-^14 C-methylammonium p-toluenesulfonate was synthesized. The preparation was diluted with "cold material" to 11.74 μCi/mg base.
24 rats were given 0.91 mg base/kg by intravenous route (by canula into the jugular vein). The animals were sacrificed in groups of 3 at the time periods indicated in Table I. Immediately before sacrifice a 0.5 ml blood sample was taken from an indwelling catheter in the carotid artery. The hearts were removed, blotted and weighed. The samples of tissue and blood were solubiized with Luma Solve (a quaternary ammonium hydroxide preparation) and radioactivity was determined in a scintillation counter.

Series [9] relates to canine myocardial reperfusion injury. As to conditions: Lucchesi and coworkers; cited from earlier work.
Series [10] relates to hyperlipidemic rabbits. As to conditions: Carew et al., 1987; cited from earlier work.
[11] abbreviates: 4 mU xanthine oxidase, 0.1 mM xanthine, 40 μM nitro blue tetrazolium.

Where “and” joins values, the source holds several entries; their conditions need not be identical. Identical values can stand only once. Like-named read-outs stand apart in the source and are kept apart here.

`CC(C)(S)C(N)C(=O)O` (racemic) [D,L-penicillamine, reference compound] registered a superoxide radicals scavenged in [1] of 14%. Also, in series [2], the IC50 was 73 µM.
In the case of `Cc1c(C)c2c(c(C)c1O)CCC(C)(CC[N+](C)(C)C)O2` (racemic) [Example 1, 2-(3,4-Dihydro-6-hydroxy-2,5,7,8-tetramethyl-2H-1-benzopyran-2-yl)ethyl-N,N,N-trimethylammonium bromide], in [2], the IC50 was 138 ± 14 µM.
For `Cc1c(C)c2c(c(C)c1O)CCC(C)(CC[N+](C)(C)C)O2` (centres unmarked) [Compound A, 3,4-Dihydro-6-hydroxy-N,,N,N,2,5,7,8-heptamethyl-2H-1-benzopyran-2-ethanaminium 4-methylbenzenesulfonate], in series [1] (setting [11]), the IC50 is 28 µM. Moreover, in [3], the oral absorption entry is given as “not or ally absorbed” and the “recovery in the feces” value was “found unchanged in the feces”. In addition, in series [3] (listed as Example 11), the oral absorption result is “not orally absorbed”. Also, the “density of β2 -receptors” value in series [4] is “further increased the density of β2 -receptors”. Moreover, in series [5], the “Relative PC50” value came to 4.5 ± 1 μM/μg leukocyte protein and the “inactivation of α1 Pi” value was “antagonized”. In [6], the cardiac output result was “enhanced” and the contractility result is recorded as “enhanced”.
On to `Cc1c(C)c2c(c(C)c1O)CCC(C)(CCN(C)C)O2` (centres unmarked) [Compound B, 3,4-dihydro-2-(2-dimethylaminoethyl)-2,5,7,8-tetramethyl-2H-1-benzopyran-6-ol], for which, in [1] (setting [11]), the IC50 is 28 µM. Besides, in [5], the “Relative PC50” value came to 7.3 μM/μg leukocyte protein and the “inactivation of α1 Pi” value was “antagonized”.
As for `CC(=O)Oc1c(C)c(C)c2c(c1C)CCC(C)(CC[N+](C)(C)C)O2.[Br-]` (centres unmarked) [Example 2, 2-(3,4-Dihydro-2,5,7,8-tetramethyl-6-methylcarbonyloxy-2H-1-benzopyran-2-yl)ethyl-N,N,N-trimethylammonium bromide], the Tissue at risk in series [7] is 307 mg and 255 mg and 176 mg and 381 mg and 310 mg and 207 mg and 395 mg and 229 mg and 50 mg and 285 mg.
For `CC(=O)Oc1c(C)c(C)c2c(c1C)CCC(C)(CC[N+](C)(C)C)O2.Cc1ccc(S(=O)(=O)[O-])cc1` (centres unmarked) [Example 9, 2-(3,4-Dihydro-2,5,7,8-tetramethyl-6-methylcarbonyloxy-2H-1-benzopyran-2-yl)ethyl-N,N,N-trimethylammonium p-toluenesulfonate], the “affinity for heart tissue” value in [8] was “marked affinity for heart tissue”. In addition, the Ratio heart/blood in series [8] (5 min) is 3.05 ± 1.46; in series [8] (15 min) it was 6.90 ± 8.34; in series [8] (30 min), 17.33 ± 5.42; in series [8] (1 hour), 20.09 ± 2.54; in series [8] (2 hours) it was 21.90 ± 3.56; in series [8] (4 hours (maximum), p-toluenesulfonate, 0.91 mg/kg, 240 min), 27.15 ± 4.30 and 27.15. The Ratio heart/blood in series [8] (6 hours) was 18.62 ± 2.77; in [8] (8 hours), 15.12 ± 2.69. The µg equiv/g in [8] (5 min) was determined as 1.59 ± 0.22 µg equiv/g; in series [8] (15 min), 1.73 ± 0.422 µg equiv/g; in [8] (30 min) it was 1.91 ± 0.278 µg equiv/g; in series [8] (1 hour), 2.09 ± 0.406 µg equiv/g; in series [8] (2 hours), 1.4 ± 0.042 µg equiv/g; in [8] (4 hours), 1.25 ± 0.248 µg equiv/g. Also, the µg equiv/g in [8] (6 hours) was 0.863 ± 0.067 µg equiv/g; in series [8] (8 hours) it was 0.652 ± 0.116 µg equiv/g. The µg equiv/mL in series [8] (5 min) amounted to 0.434 ± 0.351 µg equiv/mL; in series [8] (15 min) it was 0.59 ± 0.295 µg equiv/mL; in [8] (30 min) it was 0.124 ± 0.032 µg equiv/mL; in series [8] (1 hour) it was 0.096 ± 0.008 µg equiv/mL; in series [8] (2 hours), 0.086 ± 0.041 µg equiv/mL; in [8] (4 hours), 0.054 ± 0.013 µg equiv/mL. Moreover, the µg equiv/mL in series [8] (6 hours) is 0.048 ± 0.007 µg equiv/mL; in series [8] (8 hours), 0.048 ± 0.012 µg equiv/mL. Also, the “concentration of drug in heart tissue” value in series [8] (after 8 h) is 0.65 μg equiv/g.
Take `CC(S)C(=O)NCC(=O)O` (centres unmarked) [N-2-mercaptopropionyl glycine, reference compound]: the superoxide radicals scavenged in series [1] is reported as 14%. Besides, the “canine myocardial reperfusion injury” value in series [9] is listed as “reduce canine myocardial reperfusion injury”.
`Cc1c(C)c2c(c(C)c1O)CCC(C)(C(=O)O)O2` (centres unmarked) [Trolox, 3,4dihydro-6-hydroxy-2,5,7,8-tetramethyl-2H-1-benzopyrane-2-carboxylic acid, reference compound]: the IC50 in series [1] (setting [11]) was 28 µM; in series [2], 105 ± 8 µM. For the same molecule, the “protection of α1 Pi (Relative PC50 column)” value in series [5] (at 1 mM) is “Inactive at 1 mM”.
Regarding `CC(C)(Sc1cc(C(C)(C)C)c(O)c(C(C)(C)C)c1)Sc1cc(C(C)(C)C)c(O)c(C(C)(C)C)c1` [probucol], in series [10], the anti-atherosclerotic effect entry was “marked anti-atherosclerotic effect”.
Consider superoxide dismutase, for which the “inhibition of nitro blue tetrazolium reduction” value in series [1] (30 U superoxide dismutase, 4 mU xanthine oxidase, 0.1 mM xanthine, 40 μM nitro blue tetrazolium) worked out at 90%. For the same molecule, the “canine myocardial reperfusion injury” value in [9] is “reduce canine myocardial reperfusion injury”.
